Source: patent publication US20060024691A1, “Novel pathways in the etiology of cancer” (Buck Institute for Age Research, priority 2004, published 2006)
“Also recorded” adds a separate entry of the source. Read-outs that look alike come from different tables or passages of the source.

Experiments:
[1] = system: NF-κB p65; assay: Nuclear translocation of NF-κB p65 in MCF-7 cultures; format: cell-based, human; settings: 10 μM, 30 min
[2] = system: p50 and p65 NFκB subunits; assay: Immunoblot of nuclear p50 and p65 NFκB subunits in MCF-7 cells; format: cell-based, human; settings: MCF-7, menadione 100 μM × 30 min
Description: (§1) PS-341 was kindly provided by Millennium Pharmaceuticals Inc. (Cambridge, Mass.). […] For assessment of combined treatment effects on cell viability, 2×10^4 cells (MCF-7, MCF-7/HER2, BT474) grown in 24-well plates were first treated with tamoxifen (dissolved in ethanol) and/or parthenolide (dissolved in DMSO); for the combination treatment pathenolide was added 4 h before addition of tamoxifen. Cell viability was measured 18 h after tamoxifen treatment using the sulforhodamine B (SRB) assay (Skehan, et al. 1990). Briefly, cells fixed with trichloroacetic acid were stained for 30 min with 0.4% SRB dissolved in 1% acetic acid. Unbound dye was removed by four washes with 1% acetic acid, and protein-bound dye was extracted with 10 mM unbuffered Tris base [tris(hydroxymethyl)aminomethane] for determination of optical density at 564 nm.
(§2) Fractionation of control and treated cells into cytoplasmic and nuclear extracts was performed as previously described (Dignam et al., 1983), with minor modification. Cells harvested on ice were washed twice with cold PBS, scraped and resuspended in 1.0 ml hypotonic buffer (20 mM HEPES, pH 7.0; 10 mM KCl; 1 mM MgCl2; 0.1% Triton X-100; 20% glycerol; 0.5 mM DTT) containing a cocktail of protease inhibitors (Mini CompleteTM protease inhibitors, Roche Diagnostics, Mannheim, Germany). The harvested cells were Dounce homogenized on ice, the mixture centrifuged at 3,000 rpm at 4° C. (5 min), and the cytoplasmic fraction separated from the nuclear pellet which was resuspended in elution buffer (20 mM HEPES, pH 7.0; 10 mM KCl; 1 mM MgCl2; 0.42 M NaCl; 0.1% Triton X-100; 20% glycerol; 0.5 mM DTT), supplemented with protease inhibitors. After 20 min at 4° C. the buffered mixture was centrifuged at 14,000 rpm at 4° C. (10 min) to obtain solubilized nuclear extracts which were then stored in aliquots at −80° C. after protein determination (Bradford; BioRad, Hercules, Calif.) and for subsequent NFkB DNA-binding assays.
Antibodies against p50 NFκB, p65 NFκB, IκB, and β-actin proteins were commercially obtained (Santa Cruz Biotechnology, Santa Cruz, Calif.; and Abcam Inc., Cambridge, Mass.). […]; 4% SDS; 20% glycerol; and 10% 2-mercaptoethanol) and resolved by electrophoresis in 4-12% Bis-Tris SDS gradient gels in morpholinepropane sulfonic acid (MOPS) buffer. Separated proteins were transferred onto polyvinylidene difluoride membranes (Millipore Co., Billerica, Mass.), blocked with 5% non-fat milk in PBS containing 0.1% Tween-20, and membranes immunoblotted with the indicated antibodies in blocking solution. […]

[3] = system: IκBα; assay: Immunoblot of cytoplasmic IκBα in MCF-7 cells; format: cell-based, human; settings: MCF-7, menadione 100 μM × 30 min
Description: as §1
Fractionation of control and treated cells into cytoplasmic and nuclear extracts was performed as previously described (Dignam et al., 1983), with minor modification. Cells harvested on ice were washed twice with cold PBS, scraped and resuspended in 1.0 ml hypotonic buffer (20 mM HEPES, pH 7.0; 10 mM KCl; 1 mM MgCl2; 0.1% Triton X-100; 20% glycerol; 0.5 mM DTT) containing a cocktail of protease inhibitors (Mini CompleteTM protease inhibitors, Roche Diagnostics, Mannheim, Germany). […]

[4] = system: NFκB; assay: NFκB DNA-binding by EMSA, nuclear extracts of menadione treated MCF-7 cells; format: cell-based, human; settings: MCF-7, menadione 100 μM × 30 min
Description: as §1, §2
NFκB DNA-binding activity was measured by two different techniques. Analogous to previous tumor extract scoring of Sp1 DNA-binding protein (Quong et al., 2002), total specific NFκB DNA-binding protein was determined by electrophoretic morbility shift assay (EMSA) as follows. A duplexed oligonucleotide probe (Promega, Madison, Wis.) with sense strand containing the decameric κB consensus binding sequence (underlined) 5′-[…]-3′(SEQ ID NO:4) was end-labeled with [γ-P32]ATP (PerkinElmer, Boston, Mass.) using T4 polynucleotide kinase (Promega, Madison, Wis.) and purified with G-50 Sephadex Bio-Spin columns (BioRad, Hercules, Calif.). […]

[5] = system: ERα; settings: estrogen-free culture, 30 min, K3 100 μM, estradiol 10 nM
Description: Human breast cancer cell lines MCF7 and T47D were obtained from the American Type Culture Collection (ATCC). MCF7 cells were maintained in Dulbecco's Modification of Eagle's Medium (Cellgro) supplemented with 10% fetal bovine serum (Cellgro), 1% penicillin/streptomycin (Cellgro) and 10 μg/ml insulin (Sigma). T47D cells were maintained in RPMI (Cellgro) supplemented with 10% fetal bovine serum, 1% penicillin/streptomycin and 10 μg/ml insulin. Treatment conditions for both cell lines involved plating ˜1×10^6 cells in normal media onto 10 cm dishes, attachment and growth for 24 hours followed by a change to estrogen-free culture conditions (phenol red-free DME H-16 supplemented with 10% charcoal stripped serum, 1% penicillin/streptomycin and 10 μg/ml insulin) for an additional 24 hours. Cells were then treated as indicated for 30 minutes before extract preparation. Indicated conditions involved 30 minute pretreatments.
For preparation of high-salt nuclear extracts (nucleoplasm), isolated nuclei were resuspended for 20 minutes in ice cold extraction buffer (0.4 M NaCl, 25 mM Tris pH 7.5, 1 mM DTT, 20% glycerol, 10 mM NaFl and min-complete protease inhibitors (Roche)) followed by a 4° C. centrifugation at 16,000×g for 15 minutes.

With CC1=CC(=O)c2ccccc2C1=O [menadione, 2-methyl-1,4-naphthoquinone] the “increase in nuclear translocation of NF-κB p65 vs control treated cells” value [1] was over 3 fold, the “nuclear NFκB subunits p50 and p65 after menadione treatment” value [2] was “increases in the nuclear NFκB subunits, p50 and p65” and the “cytoplasmic levels of IκBα after menadione treatment” value [3] was “reduced”. The “NFκB activation after menadione treatment (EMSA)” value [4] was “increase in MCF-7 NFκB activation; also recorded: significantly increase MCF-7 NFκB activity”, the “nuclear translocation of ERα” value [5] was “nuclear translocation of 67 kDa (wild-type) ER” and the “nuclear translocation of ERα” value ([5]; listed as K3) was “majority of this cytoplasmic ERα has translocated to the nucleus”.
